Our source for the Activity values is ChEMBL document CHEMBL2429821, “A Casein kinase 1/Checkpoint kinase 1 pyrazolo-pyridine protein kinase inhibitor as novel activator of the p53 pathway” (Bioorg Med Chem Lett, 2013).

Assay [1] addresses Rho-associated protein kinase 2 (Rattus norvegicus) (UniProt Q62868). Briefly: Inhibition of rat ROCK2 assessed as residual activity at 10 uM relative to control.
In assay [2] the test system is A-375. Kind of assay: Cell cycle arrest in human A375 cells assessed as accumulation at sub-G1 phase at 80 uM after 48 hrs by FACS flow cytometric analysis (reference value: 2.17%). The format is functional.
Assay [3] addresses 3-phosphoinositide-dependent protein kinase 1 (Homo sapiens) (UniProt O15530). Briefly: Inhibition of human PDK1 assessed as residual activity at 1 uM relative to control.
The target of assay [4] is T1, Mitogen-activated protein kinase 15 (Homo sapiens) (UniProt Q8TD08).
T1 sequence (whole entry): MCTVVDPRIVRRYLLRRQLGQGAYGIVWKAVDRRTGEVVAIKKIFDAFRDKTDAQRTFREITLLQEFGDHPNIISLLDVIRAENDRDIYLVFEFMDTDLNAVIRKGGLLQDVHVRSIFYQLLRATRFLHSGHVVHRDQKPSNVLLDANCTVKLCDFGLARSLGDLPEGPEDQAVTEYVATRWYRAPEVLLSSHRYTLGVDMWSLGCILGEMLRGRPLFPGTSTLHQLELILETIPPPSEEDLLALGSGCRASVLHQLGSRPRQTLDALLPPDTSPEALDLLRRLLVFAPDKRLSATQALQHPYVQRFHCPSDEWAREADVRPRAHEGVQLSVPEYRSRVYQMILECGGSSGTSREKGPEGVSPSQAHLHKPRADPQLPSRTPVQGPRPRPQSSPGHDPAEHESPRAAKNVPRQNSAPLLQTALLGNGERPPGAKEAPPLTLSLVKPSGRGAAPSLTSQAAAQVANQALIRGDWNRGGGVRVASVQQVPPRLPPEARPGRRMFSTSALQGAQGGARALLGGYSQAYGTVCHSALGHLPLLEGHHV
Briefly: Inhibition of human ERK8 assessed as residual activity at 1 uM relative to control.

Assay [5] addresses MAP kinase-activated protein kinase 2 (Homo sapiens) (UniProt P49137). Briefly: Inhibition of human MAPKAPK2 assessed as residual activity at 10 uM relative to control.
The test system of assay [6] is A-375. Briefly: Cell cycle arrest in human A375 cells assessed as accumulation at S phase at 80 uM after 48 hrs by FACS flow cytometric analysis (reference value: 25.1%). Type of assay: functional.
The target in assay [7] is T2, MAP kinase-activated protein kinase 5 (Homo sapiens) (UniProt Q8IW41).
T2 sequence (whole entry): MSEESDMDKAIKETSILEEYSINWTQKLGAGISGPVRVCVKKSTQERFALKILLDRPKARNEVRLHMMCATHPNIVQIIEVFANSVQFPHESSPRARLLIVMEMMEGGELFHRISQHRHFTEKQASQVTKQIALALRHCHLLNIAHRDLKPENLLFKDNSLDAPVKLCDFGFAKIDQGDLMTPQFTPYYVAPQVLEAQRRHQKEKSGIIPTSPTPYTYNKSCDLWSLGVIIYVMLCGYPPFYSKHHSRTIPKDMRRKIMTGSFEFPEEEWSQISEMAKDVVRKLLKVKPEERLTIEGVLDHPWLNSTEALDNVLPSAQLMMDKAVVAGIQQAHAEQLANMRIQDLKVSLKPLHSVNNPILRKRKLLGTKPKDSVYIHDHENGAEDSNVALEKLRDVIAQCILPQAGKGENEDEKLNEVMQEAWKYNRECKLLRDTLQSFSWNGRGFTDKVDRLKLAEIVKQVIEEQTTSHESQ
Briefly: Inhibition of human PRAK assessed as residual activity at 1 uM relative to control.

Assay [8] has as its target T3, Mitogen-activated protein kinase 12 (Homo sapiens) (UniProt P53778).
T3 sequence (whole entry): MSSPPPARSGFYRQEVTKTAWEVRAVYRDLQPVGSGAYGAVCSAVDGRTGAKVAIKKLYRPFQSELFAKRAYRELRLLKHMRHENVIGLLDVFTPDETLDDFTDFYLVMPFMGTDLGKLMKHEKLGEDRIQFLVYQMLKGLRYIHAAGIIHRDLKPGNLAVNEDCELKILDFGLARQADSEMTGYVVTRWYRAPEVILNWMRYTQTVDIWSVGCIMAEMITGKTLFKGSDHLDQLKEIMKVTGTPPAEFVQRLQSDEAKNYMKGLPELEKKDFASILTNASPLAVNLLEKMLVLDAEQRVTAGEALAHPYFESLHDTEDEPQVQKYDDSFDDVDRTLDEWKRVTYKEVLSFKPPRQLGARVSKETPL
Kind of assay: Inhibition of human p38gamma MAPK assessed as residual activity at 10 uM relative to control.

Assay [9] addresses T4, Serine/threonine-protein kinase Nek2 (Homo sapiens) (UniProt P51955).
T4 sequence (whole entry): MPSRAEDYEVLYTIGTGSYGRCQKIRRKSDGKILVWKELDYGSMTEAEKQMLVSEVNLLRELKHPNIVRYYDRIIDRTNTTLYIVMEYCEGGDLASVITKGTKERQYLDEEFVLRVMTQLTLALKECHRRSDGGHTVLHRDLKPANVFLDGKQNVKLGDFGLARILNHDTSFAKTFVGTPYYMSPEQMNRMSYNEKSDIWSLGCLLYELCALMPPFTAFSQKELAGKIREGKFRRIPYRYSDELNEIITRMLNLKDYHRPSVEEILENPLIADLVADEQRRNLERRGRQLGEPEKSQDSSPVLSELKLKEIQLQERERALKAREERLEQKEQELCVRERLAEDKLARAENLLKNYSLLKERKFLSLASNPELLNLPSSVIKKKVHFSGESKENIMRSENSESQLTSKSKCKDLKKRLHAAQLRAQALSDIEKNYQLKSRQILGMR
Briefly: Inhibition of human NEK2alpha assessed as residual activity at 1 uM relative to control.

The target of assay [10] is T5, Protein kinase C zeta type (Homo sapiens) (UniProt Q05513).
T5 sequence (whole entry): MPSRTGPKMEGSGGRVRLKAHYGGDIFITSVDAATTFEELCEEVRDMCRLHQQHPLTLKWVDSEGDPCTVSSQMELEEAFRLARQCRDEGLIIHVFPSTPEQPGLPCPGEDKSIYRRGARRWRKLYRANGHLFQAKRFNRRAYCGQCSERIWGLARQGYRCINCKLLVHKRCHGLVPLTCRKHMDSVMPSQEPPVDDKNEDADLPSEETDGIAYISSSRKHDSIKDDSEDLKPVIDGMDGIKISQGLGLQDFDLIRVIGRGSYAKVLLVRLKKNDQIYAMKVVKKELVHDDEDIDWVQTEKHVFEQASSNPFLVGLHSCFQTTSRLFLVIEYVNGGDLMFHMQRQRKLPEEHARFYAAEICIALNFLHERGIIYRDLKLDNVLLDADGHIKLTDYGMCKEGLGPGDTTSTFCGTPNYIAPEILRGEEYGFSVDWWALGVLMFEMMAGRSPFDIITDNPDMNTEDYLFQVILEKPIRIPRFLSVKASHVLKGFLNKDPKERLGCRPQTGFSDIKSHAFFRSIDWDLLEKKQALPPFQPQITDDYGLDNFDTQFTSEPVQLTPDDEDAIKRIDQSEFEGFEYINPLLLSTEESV
Kind of assay: Inhibition of human PKCzeta assessed as residual activity at 10 uM relative to control.

Sequence of 3-phosphoinositide-dependent protein kinase 1 (Homo sapiens) (O15530 whole entry, looked up): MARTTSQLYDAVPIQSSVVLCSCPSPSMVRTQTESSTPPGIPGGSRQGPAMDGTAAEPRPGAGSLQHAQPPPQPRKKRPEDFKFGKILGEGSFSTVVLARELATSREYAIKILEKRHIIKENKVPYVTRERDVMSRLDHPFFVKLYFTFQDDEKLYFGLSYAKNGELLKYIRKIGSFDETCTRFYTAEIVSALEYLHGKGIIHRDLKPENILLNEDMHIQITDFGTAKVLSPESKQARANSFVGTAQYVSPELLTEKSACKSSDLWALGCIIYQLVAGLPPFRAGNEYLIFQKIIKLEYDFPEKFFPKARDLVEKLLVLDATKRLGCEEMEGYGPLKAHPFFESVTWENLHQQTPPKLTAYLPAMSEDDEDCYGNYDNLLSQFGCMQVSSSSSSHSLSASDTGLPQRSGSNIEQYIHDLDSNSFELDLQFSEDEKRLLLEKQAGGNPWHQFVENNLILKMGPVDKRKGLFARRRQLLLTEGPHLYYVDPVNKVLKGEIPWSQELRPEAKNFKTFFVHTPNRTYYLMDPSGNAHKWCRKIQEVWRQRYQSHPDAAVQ
Sequence of Rho-associated protein kinase 2 (Rattus norvegicus) (Q62868 whole entry, looked up): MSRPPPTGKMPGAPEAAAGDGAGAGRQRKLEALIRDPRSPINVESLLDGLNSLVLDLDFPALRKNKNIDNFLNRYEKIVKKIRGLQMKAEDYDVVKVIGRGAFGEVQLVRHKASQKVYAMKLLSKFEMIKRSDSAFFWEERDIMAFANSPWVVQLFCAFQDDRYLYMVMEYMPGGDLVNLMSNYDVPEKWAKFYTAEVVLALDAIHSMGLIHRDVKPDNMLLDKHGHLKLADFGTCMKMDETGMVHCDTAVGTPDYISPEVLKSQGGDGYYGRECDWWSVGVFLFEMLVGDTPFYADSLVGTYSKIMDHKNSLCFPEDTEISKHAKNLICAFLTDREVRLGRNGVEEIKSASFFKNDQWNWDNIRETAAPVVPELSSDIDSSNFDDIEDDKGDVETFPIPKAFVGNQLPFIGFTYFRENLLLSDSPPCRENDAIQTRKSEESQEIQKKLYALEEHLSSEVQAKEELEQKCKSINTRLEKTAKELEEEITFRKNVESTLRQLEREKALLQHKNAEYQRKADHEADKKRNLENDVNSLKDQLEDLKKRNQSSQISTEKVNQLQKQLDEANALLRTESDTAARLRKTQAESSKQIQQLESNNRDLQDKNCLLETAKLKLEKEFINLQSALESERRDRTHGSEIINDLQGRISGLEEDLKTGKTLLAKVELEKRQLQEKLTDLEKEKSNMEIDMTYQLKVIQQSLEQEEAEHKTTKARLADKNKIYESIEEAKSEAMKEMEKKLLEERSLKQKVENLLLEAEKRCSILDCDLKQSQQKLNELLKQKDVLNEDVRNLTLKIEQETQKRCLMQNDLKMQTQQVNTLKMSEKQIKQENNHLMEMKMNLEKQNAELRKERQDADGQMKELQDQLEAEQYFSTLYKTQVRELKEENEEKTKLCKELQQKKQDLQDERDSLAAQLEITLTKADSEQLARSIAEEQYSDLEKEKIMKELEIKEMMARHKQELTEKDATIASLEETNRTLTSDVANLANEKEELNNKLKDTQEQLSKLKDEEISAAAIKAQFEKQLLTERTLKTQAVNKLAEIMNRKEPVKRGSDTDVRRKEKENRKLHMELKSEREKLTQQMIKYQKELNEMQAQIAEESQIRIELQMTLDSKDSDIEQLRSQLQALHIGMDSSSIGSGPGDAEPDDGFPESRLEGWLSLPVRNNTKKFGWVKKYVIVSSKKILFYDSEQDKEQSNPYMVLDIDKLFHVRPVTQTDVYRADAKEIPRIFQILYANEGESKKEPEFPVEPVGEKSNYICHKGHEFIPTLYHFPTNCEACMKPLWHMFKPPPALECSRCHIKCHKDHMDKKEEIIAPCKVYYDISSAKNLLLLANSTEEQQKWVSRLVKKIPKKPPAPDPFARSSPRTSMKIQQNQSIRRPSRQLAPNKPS
Sequence of MAP kinase-activated protein kinase 2 (Homo sapiens) (P49137 whole entry, looked up): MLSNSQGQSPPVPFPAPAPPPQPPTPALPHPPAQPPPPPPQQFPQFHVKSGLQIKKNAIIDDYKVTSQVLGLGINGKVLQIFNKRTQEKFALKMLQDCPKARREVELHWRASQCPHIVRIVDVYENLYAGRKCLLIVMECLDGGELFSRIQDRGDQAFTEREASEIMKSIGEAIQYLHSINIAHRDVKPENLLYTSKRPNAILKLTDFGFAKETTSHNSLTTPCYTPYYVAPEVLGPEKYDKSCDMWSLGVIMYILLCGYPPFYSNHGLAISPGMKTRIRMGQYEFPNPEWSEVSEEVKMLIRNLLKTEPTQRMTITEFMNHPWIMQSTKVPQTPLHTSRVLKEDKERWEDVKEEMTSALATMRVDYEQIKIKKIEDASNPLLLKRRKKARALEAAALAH

For the compound `CC(=O)Nc1cccc(-c2cnc3[nH]nc(C)c3c2)c1`, the Activity in assay [1] worked out at 58.7%; with A-375 [2] it was 45.7%; in assay [3] it was 95.8%; in assay [4], 45.3%; in assay [5], 96.4%; in the assay with A-375 [6], 11.6%. Besides, the Activity in assay [7] was found to be 94.5%; in assay [8] it was 95.6%; in assay [9], 53.5%; in assay [10], 84.2%.
Regarding `CCCC(=O)Nc1n[nH]c2ncc(-c3cccnc3)cc12`, the Activity in assay [1] was 111%; in assay [3], 108%; in assay [7] it was 82%; in assay [9], 97%; in assay [10], 77%.
On to `CC(=O)Nc1nccc(-c2c(-c3ccccc3)noc2C)n1`, for which the Activity in assay [1] came out at 92.3%; in the assay with A-375 [2], 3.32%; in assay [3] it was 91.4%; in assay [4], 91.1%; in assay [5], 124%; in the assay on A-375 [6] it was 21.9%. Also, the Activity in [7] came out at 82.4%; in [8], 93%; in assay [9], 85.8%; in assay [10], 82%.
